“And” between values parts separate entries of the source, which are not always exact repeats. Equal entries are not always repeated.

Experiment [1] has as its system Lysyl oxidase family activity in aorta. The experiment is described as follows: Lysyl oxidase family activity in aorta of KPC tumor bearing mice at end point, fluorometric activity assay. Conditions: for Lysyl oxidase family activity measured in the aorta of KPC tumour bearing mice at endpoint (signal over noise): Extended Data 5A, fluorometric activity assay, noise measured with 300 µM ßAPN, individual animals. Format: in vivo, mouse. As for the experimental part:
KPC mice were treated from the time at which palpable tumors were detected (typically 10 to 12 weeks of age) and continued until the study end point. Mice were treated daily with PXS-5505 (20 mg kg^−1 i.p.) or vehicle (0.9% saline) and twice weekly with gemcitabine (100 mg kg^−1 i.p.) or vehicle (0.9% saline).
Extended Data Fig. 5 PXS-5505 in combination with gemcitabine in vivo. a. […] Signal is defined as the enzyme activity in the aorta, while noise is measured in the presence of a high concentration (300 µM) BAPN to abolish any lysyl oxidase family activity. […] Data presented as mean values +/− SD b. […] Data presented as mean values +/− SD. c. FITC-dextran (molecular weight: 10 kDa) signal quantification from KPC tumor end point from each treatment group (vehicle n = 3 biologically independent animals, PXS-5505 n = 5 biologically independent animals, Gem n = 5 biologically independent animals, PXS-5505 + Gem n = 5 biologically independent animals). 4 ROIs taken per mouse. P-values determined by Welchs t-test. Data presented as mean values +/− SD. Scale bars = 100 μm d. Quantification of red birefringent (mature) collagen fibers from human PDXs at end point after 3 cycles of treatment, treated as indicated. […] Data presented as mean values +/− SD. Scale bars = 100 μm e. Quantification of bulk modulus (stiffness) by unconfined compression testing of end point human PDX tumors from each treatment group (vehicle n = 5 biologically independent animals, Gem n = 5 biologically independent animals, PXS-5505 n = 5 biologically independent animals, PXS-5505 + Gem n = 5 biologically independent animals) [individual tumors shown]). […] FITC-dextran (molecular weight 10 kDa) signal quantification from human PDXs from each treatment group (vehicle n = 4 biologically independent animals, PXS-5505 n = 5 biologically independent animals, Gem n = 5 biologically independent animals, PXS-5505 + Gem n = 5 biologically independent animals). […] P values determined by Welchs t-test. g. […] Quantification of green birefringent (nascent) collagen fibers from human PDXs at end point, treated as indicated. […]

For another experiment, the system named is KPC PDAC tumors. The experiment can be described thus: Bulk modulus (stiffness) by unconfined compression testing of end-point KPC tumors. Type of experiment: in vivo, mouse. The arrangement: key to Bulk modulus (stiffness) by unconfined compression testing: bulk elastic modulus in kPa. Conditions: for tumor bulk modulus (stiffness): end-point KPC tumors; for Bulk modulus (stiffness) by unconfined compression testing: endpoint PDAC tumours, individual tumours. On the procedure:
Fig. 4 PXS-5505 administered in a KPC in vivo survival study. a, Schematic of the KPC in vivo survival study. Presence of a primary tumor in KPC mice was confirmed by two independent researchers (positive diagnosis) before commencement of daily treatment (Tx) on one of four treatment arms as follows: vehicle, 0.9% saline; Gem, twice-weekly gemcitabine (100 mg kg^−1 i.p.); PXS-5505, daily PXS-5505 at 20 mg kg^−1 i.p.; and PXS-5505 + Gem, daily PXS-5505 at 20 mg kg^−1 i.p. + twice-weekly gemcitabine (100 mg kg^−1 i.p.). b, Table of median survival (since diagnosis/commencement of treatment) across the four treatment groups (n = 30 biologically independent animals (vehicle), n = 31 biologically independent animals (Gem), n = 36 biologically independent animals (PXS-5505), n = 46 biologically independent animals (PXS-5505 + Gem)). c, Kaplan–Meier curves for overall survival across treatment arms (n = 30 biologically independent animals (vehicle), n = 31 biologically independent animals (Gem), n = 36 biologically independent animals (PXS-5505), n = 46 biologically independent animals (PXS-5505 + Gem)). P values determined by log-rank (Mantel–Cox) test. d, Representative maximum intensity projections of SHG multiphoton imaging for tumors from each treatment group (n = 1 FOV taken from one biologically independent animal per group) at end point (scale bars, 100 μm) and quantification of SHG peak signal intensity (n = 5 biologically independent animals per group and five FOV per animal). Data are mean ± s.d. […] Quantification of metastases (n = 18 biologically independent animals (vehicle), n = 18 biologically independent animals (Gem), n = 17 biologically independent animals (PXS-5505), n = 15 biologically independent animals (PXS-5505 + Gem)). Data are mean ± s.d.
Unconfined compression of in vivo tissue samples was carried out on 2–3-mm cross-sectional slices using a TA Instruments Dynamic Hybrid Rheometer (DHR-3, TA Instruments). Tissue samples were placed between upper and lower parallel plate geometries. A constant linear compressive rate of 5 µm s^−1 was applied to the samples and axial force (N) and gap (mm) were collected every 0.01 s. Data were processed and a stress–strain curve for each replicate was obtained. Bulk elastic modulus (kPa) was obtained as the gradient of the linear region of the stress–strain curve corrected for cross-sectional area of sample. Data points represent individual biological replicates.

With `Nc1ccn([C@@H]2O[C@H](CO)[C@@H](O)C2(F)F)c(=O)n1` [Gem, gemcitabine], in experiment [1], the “Lysyl oxidase family activity measured in the aorta of KPC tumour bearing mice at endpoint (signal over noise)” value was 2.059 and 2.616 and 2.089 and 2.043 and 2.04 and 2.065 and 2.364. Also, in the experiment on KPC PDAC tumors, the “tumor bulk modulus (stiffness)” value is reported as 20.0 kPa; the “Bulk modulus (stiffness) by unconfined compression testing” value was 26.381 and 11.231 and 14.142 and 18.28 and 20.014.

In the case of `Cl.Cl.NC/C=C(\F)CS(=O)(=O)c1cccc2cccnc12.O` [PXS-5505, (Z)-3-fluoro-4-(quinolin-8-ylsulfonyl)but-2-en-1-amine dihydrochloride monohydrate], the “Lysyl oxidase family activity measured in the aorta of KPC tumour bearing mice at endpoint (signal over noise)” value in experiment [1] is 1.144 and 1.3025 and 1.519 and 1.787 and 1.62 and 1.558. Also, the “lysyl oxidase family activity in the aorta at end point” value in experiment [1] (KPC tumor bearing mice) is listed as “confirming lysyl oxidase family inhibition”. In the experiment with KPC PDAC tumors, the “tumor bulk modulus (stiffness)” value is recorded as “moderate reduction in stiffness”; the “Bulk modulus (stiffness) by unconfined compression testing” value is 1.01 and 4.478 and 8.389 and 5.347 and 1.487.

Source of the values: PMC10518255, “A first-in-class pan-lysyl oxidase inhibitor impairs stromal remodeling and enhances gemcitabine response and survival in pancreatic cancer” (Nature Cancer, 2023).
